Results reported in patent US20230338647A1, “SUBCUTANEOUSLY IMPLANTED DEVICE FOR GASTROINTESTINAL ADMINISTRATION OF SUBSTANCES” (Endopump Ltd., priority 2018, published 2023).
One block for each molecule: values may come before it.

Experiments:
[1] = Solubility of levodopa esters and carbidopa propyl ester in water acidified with acetic acid; type: physicochemical
Procedure: Without limitation, in one example, substance 14 may include several levodopa esters, including the ethyl ester, propyl ester, isopropyl ester and butyl ester. In experiments, these esters were successfully dissolved in water to which was added acetic acid until attaining pH 5 (in some cases pH 4.5). […] The propyl ester of carbidopa was solubilized under the same conditions and a clear solution of 100 mg/ml of the carbidopa propyl ester was obtained. A mixture of each of the above levodopa esters with carbidopa propyl ester was prepared at a ratio of 4:1 (levodopa ester/carbidopa ester) and a clear solution was obtained. The solution of the mixture was stable for at least two weeks based on chromatographic determination of levodopa esters and carbidopa ester. The formulations of the levodopa esters together with carbidopa ester were prepared in diluted acetic acid and ascorbic acid at a pH 5. Each one of the above mentioned esters have good stability.

[2] = Dissolution of L-DOPA/carbidopa/ascorbic acid mixture in 0.2 N HCl; type: physicochemical; conditions: 200 mg L-DOPA, 50 mg carbidopa, 2.5 mg ascorbic acid in 3.5 ml of 0.2 N HCl, vortexed and sonicated
Procedure: 3.5 ml of 0.2 N HCl were added to 200 mg of L- DOPA, 50 mg of carbidopa and 2.5 mg of ascorbic acid and the mixture was vortexed and then sonicated. […] Then 1N HCl was added dropwise till all L-DOPA was dissolved.

relative solubility among the levodopa esters (in words) [1]: highest solubility
Structure (SMILES): CCOC(=O)[C@@H](N)Cc1ccc(O)c(O)c1 [ethyl ester]

solubility ([1]; pH 5, aqueous buffer, thermodynamic from solid): ≥ 400 mg/mL
Structure (SMILES): CC(C)OC(=O)[C@@H](N)Cc1ccc(O)c(O)c1 [isopropyl ester]

soluble at a concentration of / clear solution obtained ([1]; pH 5): ≥ 400 mg/mL
Structure (SMILES): CCCOC(=O)[C@@H](N)Cc1ccc(O)c(O)c1 [propyl ester]

dissolution of L-DOPA (in words) [2]: did not fully dissolve
Structure (SMILES): N[C@@H](Cc1ccc(O)c(O)c1)C(=O)O [L- DOPA, L-3,4-dihydroxyphenylalanine]

soluble at a concentration of / clear solution obtained ([1]; water with acetic acid added until pH 5 (in some cases pH 4.5)): ≥ 100 mg/mL
Structure (SMILES): CCCOC(=O)C(C)(Cc1ccc(O)c(O)c1)NN (centres unmarked) [carbidopa propyl ester]
